Laboratory results taken from patent publication US20030232986A1, “Inhibitors of caspases” (Vertex Pharmaceuticals Incorporated, priority 1998, published 2003).
*1 amine or outer side, *2 acyl side, *3 side chain or, on linkers, in order; H or OH if unused. Where a SMILES comes first, the peptide text is derived from it. [ ]: non-standard residue; d: D form. The star is where a group is joined. 4Abz = Nc1ccc(C(=O)O)cc1; CO = O=C([*:1])[*:2]; NHPh = c1ccc(N*)cc1

Molecular target: T1, Caspase-1 (Homo sapiens, UniProt P29466)
T1 sequence (P29466 120-297 limits assumed): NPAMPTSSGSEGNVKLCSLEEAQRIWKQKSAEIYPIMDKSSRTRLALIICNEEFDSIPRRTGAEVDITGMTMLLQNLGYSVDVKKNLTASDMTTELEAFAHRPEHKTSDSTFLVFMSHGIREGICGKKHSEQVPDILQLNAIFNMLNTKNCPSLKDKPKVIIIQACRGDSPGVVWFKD
T1 sequence (P29466 317-404 limits assumed): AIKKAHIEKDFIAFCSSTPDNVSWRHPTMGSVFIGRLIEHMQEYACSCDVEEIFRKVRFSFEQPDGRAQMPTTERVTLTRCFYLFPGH
Assay: Caspase-1 enzyme inhibition (Ki)
Assay type: biochemical
Conditions: not given
Procedure: Ki values for test compounds with the various caspases were obtained by the method of Margolin et al. (J. Biol. Chem., 272 pp. 7223-7228 (1997)). Assays were performed in 10 mM Tris (Sigma Corp, St Louis Mo.) pH 7.5, 1 mM Dithiothreitol (DTT, Research Organic INC, Cleveland, Ohio) and 0.1% CHAPS (Pierce, Rockford Ill.) at 37° C. For caspase-3, a solution of 8% glycerol was added to the assay buffer to improve enzyme stability. A 65 μL aliquot of the assay buffer and 5 μL aliquot of the appropriate dilutions of inhibitor in DMSO where pipetted into a 96 well plate, treated with 10 μL of caspase, then diluted in assay buffer (0.5-40 nM active protein by active site titration). A control containing DMSO but no compound was included for each determination. The plates were then incubated for 15 minutes at 37° C., before addition of the appropriate substrate (20 μL, final concentration 1-4×KM, final assay volume 100 μL) to initiate the reaction. Reaction rates were measured at 37° C. either by following the time dependant increase in absorbance at 405 nm (for the pNA substrates) or in fluorescence (Ex 390, Em 460) (for the AMC substrates). The rates obtained were plotted against inhibitor concentration and the data fit to the Morrison tight-binding equation for competitive inhibitors (Morrison, J. F., Biochem. Biophys. Acta, 185 pp. 269-286 (1969)). The substrates used for the individual assays were as follows:
Caspase-1 Suc-YVAD-pNA (Bachem, King of Prussia, Pa.) (final concentration in the assay 80 μM),

| Ki [µM] | SMILES |
| --- | --- |
| 0.01 to 1 | Cc1onc(-c2c(F)cccc2Cl)c1C(=O)N[C@H](C(=O)N1CCC[C@H]1C(=O)N[C@H](C=O)CC(=O)O)C(C)C [Example 5ae] |
| 0.01 to 1 | CC(=O)N[C@H](Cc1c[nH]c2ccccc12)C(=O)N[C@H](C(=O)N1CCC[C@H]1C(=O)N[C@H](C=O)CC(=O)O)C(C)C [Example 5ah] (Ac-[dW]VPD-aldehyde) |
| 0.01 to 1 | COc1ccc(CCC(=O)N[C@H](C(=O)N2CCC[C@H]2C(=O)N[C@H](C=O)CC(=O)O)C(C)C)cc1OC [Example 5o] |
| 0.01 to 1 | CC(C)[C@H](NC(=O)C(c1ccc(Cl)cc1)c1ccc(Cl)cc1)C(=O)N1CCC[C@H]1C(=O)N[C@H](C=O)CC(=O)O [Example 5p] |
| 0.01 to 1 | CC(C)[C@H](NC(=O)C(c1ccccc1)c1ccccc1)C(=O)N1CCC[C@H]1C(=O)N[C@H](C=O)CC(=O)O [Example 5q] |
| > 1 | CC(C)[C@H](NC(=O)C1(c2ccccc2)CCCC1)C(=O)N1CCC[C@H]1C(=O)N[C@H](C=O)CC(=O)O [Example 5t] |

Same assay, conditions: substrate Suc-YVAD-pNA 80 μM, 37° C., pH 7.5

| SMILES | Ki [µM] |
| --- | --- |
| CC(=O)N[C@H](Cc1c[nH]c2ccccc12)C(=O)N[C@H](C(=O)N1CCC[C@H]1C(=O)N[C@H](C=O)CC(=O)O)C(C)C [Example 5ah] (Ac-[dW]VPD-aldehyde) | 0.01 to 1 |
| CC(C)[C@H](NC(=O)Cc1ccc(Cl)c(Cl)c1)C(=O)N1CCC[C@H]1C(=O)N[C@H](C=O)CC(=O)O [Example 5an] | 0.01 to 1 |
| Cc1ccn2c(=O)c(C(=O)N[C@H](C(=O)N3CCC[C@H]3C(=O)N[C@H](C=O)CC(=O)O)C(C)C)cnc2c1 [Example 5ap] | 0.01 to 1 |
| CC(C)[C@H](NC(=O)c1c(-c2ccccc2)nnc2ccccc12)C(=O)N1CCC[C@H]1C(=O)N[C@H](C=O)CC(=O)O [Example 5bc] | 0.01 to 1 |
| C[C@H](NS(=O)(=O)c1ccccc1)C(=O)N1CCC[C@H]1C(=O)N[C@H](C=O)CC(=O)O [Example 7ae] | 0.01 to 1 |
| C[C@H](NC(=O)Nc1ccccc1)C(=O)N1CCC[C@H]1C(=O)N[C@H](C=O)CC(=O)O [Example 7af] ({NHPh-CO}-Ala-Pro-Asp-aldehyde) | 0.01 to 1 |
| C[C@H](NC(=O)Oc1ccccc1)C(=O)N1CCC[C@H]1C(=O)N[C@H](C=O)CC(=O)O [Example 7ag] | 0.01 to 1 |
| C[C@H](NC(=O)c1ccc(F)c(F)c1)C(=O)N1CCC[C@H]1C(=O)N[C@H](C=O)CC(=O)O [Example 7al] | 0.01 to 1 |
| C[C@H](NC(=O)c1ccc(N)cc1)C(=O)N1CCC[C@H]1C(=O)N[C@H](C=O)CC(=O)O [Example 7aq] (H-[4Abz]APD-aldehyde) | 0.01 to 1 |
| Cc1nc(C)c(C(=O)N[C@@H](C)C(=O)N2CCC[C@H]2C(=O)N[C@H](C=O)CC(=O)O)s1 [Example 7r] | 0.01 to 1 |
| CC(C)C[C@@H](C(=O)N[C@H](C=O)CC(=O)O)N1CC[C@@H](NC(=O)c2nccc3ccccc23)C1=O [Example 32a] | > 1 |
| CC(C)C[C@@H](C(=O)N[C@H](C=O)CC(=O)O)N1CC[C@@H](NC(=O)c2ccc3[nH]nnc3c2)C1=O [Example 32c] | > 1 |
| CC(C)C[C@@H](C(=O)N[C@H](C=O)CC(=O)O)N1CC[C@@H](NC(=O)c2c(Cl)cccc2Cl)C1=O [Example 32e] | 0.01 to 1 |
| CN(NC(=O)N1CCCC1C(=O)NC(C=O)CC(=O)O)C(=O)c1nccc2ccccc12 (centres unmarked) [Example 34, 3-({1-[N-(isoquinoline-1-carbonyl)-N-methyl-hydrazinocarbonyl]-pyrrolidine-2-carbonyl}-amino)-4-oxo-butyric acid] | > 1 |
| C[C@H](NC(=O)c1cc(F)c(N(C)C)c(F)c1)C(=O)N1CCC[C@H]1C(=O)N[C@H](C=O)CC(=O)O [Example 122n, 3-({1-[2-(4-Dimethylamino-3,5-difluoro-benzoylamino)-propionyl]-pyrrolidine-2-carbonyl}-amino)-4-oxo-butyric acid] | 0.01 to 1 |
| C[C@H](NC(=O)c1ccc(N)c(Cl)c1)C(=O)N1CCC[C@@H]1C(=O)N[C@H](C=O)CC(=O)O [Example 122o, 3-({1-[2-(4-Amino-3-chloro-benzoylamino)-propionyl]-pyrrolidine-2-carbonyl}-amino)-4-oxo-butyric acid] | > 1 |
| CCC(=O)Nc1ccc(C(=O)N[C@@H](C)C(=O)N2CCC[C@H]2C(=O)N[C@H](C=O)CC(=O)O)cc1Cl [Example 122t, 3-({1-[2-(3-Chloro-4-propionylamino-benzoylamino)-propionyl]-pyrrolidine-2-carbonyl}-amino)-4-oxo-butyric acid] | 0.01 to 1 |
| C[C@H](NC(=O)c1ccc(NC(=O)Cc2ccccc2)c(Cl)c1)C(=O)N1CCC[C@H]1C(=O)N[C@H](C=O)CC(=O)O [Example 122u, 3-({1-[2-(3-Chloro-4-phenylacetylamino-benzoylamino)-propionyl]-pyrrolidine-2-carbonyl}-amino)-4-oxo-butyric acid] | < 0.01 |

Other lines, results leading:

| Ki [µM] | SMILES |
| --- | --- |
| > 1 | COc1ccc(C(=O)NC(C(=O)N2N=C(C(C)(C)C)SC2C(=O)NC(C=O)CC(=O)O)C(C)C)cc1 (single isomer, unassigned) [Example 46a, 3-({5-tert-butyl-3-[2-(4-methoxy-benzoylamino)-3-methyl-butyryl]-2,3-dihydro-[1,3,4]thiadiazole-2-carbonyl)-amino)-4-oxo-butyric acid] |
| 0.01 to 1 | Cc1onc(-c2c(F)cccc2Cl)c1C(=O)N[C@H](C(=O)N1CCC[C@H]1C(=O)N[C@H](C=O)CC(=O)O)C(C)C [Example 5ae] |
| 0.01 to 1 | COc1ccc(CCC(=O)N[C@H](C(=O)N2CCC[C@H]2C(=O)N[C@H](C=O)CC(=O)O)C(C)C)cc1OC [Example 5o] |
| 0.01 to 1 | CC(C)[C@H](NC(=O)C(c1ccc(Cl)cc1)c1ccc(Cl)cc1)C(=O)N1CCC[C@H]1C(=O)N[C@H](C=O)CC(=O)O [Example 5p] |
| 0.01 to 1 | CC(C)[C@H](NC(=O)C(c1ccccc1)c1ccccc1)C(=O)N1CCC[C@H]1C(=O)N[C@H](C=O)CC(=O)O [Example 5q] |
| > 1 | CC(C)[C@H](NC(=O)C1(c2ccccc2)CCCC1)C(=O)N1CCC[C@H]1C(=O)N[C@H](C=O)CC(=O)O [Example 5t] |
| 0.01 to 1 | C[C@H](NC(=O)c1ccc(OC(F)(F)F)cc1)C(=O)N1CCC[C@H]1C(=O)N[C@H](C=O)CC(=O)O [Example 7i] |
| > 1 | CC(=O)N(C)c1ccc(C(=O)N[C@@H](C)C(=O)N2CCC[C@H]2C(=O)N[C@H](C=O)CC(=O)O)cc1 [Example 7j] |
| 0.01 to 1 | CC(C)[C@H](NC(=O)c1ccc(N)c(Cl)c1)C(=O)N1CCN(C)C[C@H]1C(=O)N[C@H](C=O)CC(=O)O [Example 17a] |
| 0.01 to 1 | C[C@H](NC(=O)C(=O)c1ccccc1)C(=O)N1CC(F)(F)C[C@H]1C(=O)N[C@H](C=O)CC(=O)O [Example 27c] |
| 0.01 to 1 | Cc1cc(C(=O)N[C@@H](C)C(=O)N2CC(F)(F)C[C@H]2C(=O)N[C@H](C=O)CC(=O)O)cc(C)c1O [Example 27j] |
| 0.01 to 1 | CC(=O)Nc1c(Cl)cc(C(=O)N[C@@H](C)C(=O)N2CC(F)(F)C[C@H]2C(=O)N[C@H](C=O)CC(=O)O)cc1Cl [Example 27k] |
| < 0.01 | CC(C)[C@H](NC(=O)c1cccc2ccccc12)C(=O)N[C@@H](C)C(=O)N[C@H](C=O)CC(=O)O [Example 29f] |
| > 1 | Cc1cc(C(=O)N[C@@H]2CCN([C@@H](CC(C)C)C(=O)N[C@H](C=O)CC(=O)O)C2=O)cc(C)c1O [Example 32b] |
| > 1 | CC(Nc1ccccc1)C(=O)N1CCCC1C(=O)NC(C=O)CC(=O)O (centres unmarked) [Example 121, 4-Oxo-3-{[1-(2-phenylamino-propionyl)-pyrrolidine-2-carbonyl]-amino}-butyric acid] |
| 0.01 to 1 | CC(C)CC(=O)Nc1ccc(C(=O)N[C@@H](C)C(=O)N2CCC[C@H]2C(=O)N[C@H](C=O)CC(=O)O)cc1Cl [Example 122v, 3-[(1-{2-[3-Chloro-4-(3-methyl-butyrylamino)-benzoylamino]-propionyl}-pyrrolidine-2-carbonyl}-amino]-4-oxo-butyric acid] |
| 0.01 to 1 | COc1c(C(=O)NC(C)C(=O)N2CC(F)(F)CC2C(=O)NC(C=O)CC(=O)O)ccc(NC(C)=O)c1Cl (centres unmarked) [Example 123c, 3-({1-[2-(4-Acetylamino-3-chloro-2-methoxy-benzoylamino)-propionyl]-4,4-difluoro-pyrrolidine-2-carbonyl)-amino)-4-oxo-butyric acid] |
